Measured values taken from ChEMBL document CHEMBL1135364, “Synthesis and structure-activity relationships of oxime neurokinin antagonists: discovery of potent arylamides” (Bioorg Med Chem Lett, 2002).

Tests used:
Substance-K receptor [1] = target: T1, Substance-K receptor (Homo sapiens, UniProt P21452); assay: Binding affinity test against Neurokinin 2 (NK2) receptor
T1 sequence (P21452 whole entry): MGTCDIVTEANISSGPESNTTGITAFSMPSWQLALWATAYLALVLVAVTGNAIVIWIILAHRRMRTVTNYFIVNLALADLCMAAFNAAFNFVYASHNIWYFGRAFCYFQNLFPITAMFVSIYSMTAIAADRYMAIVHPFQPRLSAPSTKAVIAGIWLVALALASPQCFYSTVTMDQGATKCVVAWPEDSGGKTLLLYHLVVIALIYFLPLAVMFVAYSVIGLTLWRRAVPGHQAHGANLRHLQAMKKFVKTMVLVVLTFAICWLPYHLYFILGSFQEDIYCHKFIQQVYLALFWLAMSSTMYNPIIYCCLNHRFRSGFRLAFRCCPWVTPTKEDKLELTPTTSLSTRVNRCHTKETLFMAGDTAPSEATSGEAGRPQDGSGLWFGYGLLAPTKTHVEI

Substance-P receptor [2] = target: T2, Substance-P receptor (Homo sapiens, UniProt P25103); assay: Tested for binding affinity against neurokinin 1 (NK1) receptor
T2 sequence (P25103 whole entry): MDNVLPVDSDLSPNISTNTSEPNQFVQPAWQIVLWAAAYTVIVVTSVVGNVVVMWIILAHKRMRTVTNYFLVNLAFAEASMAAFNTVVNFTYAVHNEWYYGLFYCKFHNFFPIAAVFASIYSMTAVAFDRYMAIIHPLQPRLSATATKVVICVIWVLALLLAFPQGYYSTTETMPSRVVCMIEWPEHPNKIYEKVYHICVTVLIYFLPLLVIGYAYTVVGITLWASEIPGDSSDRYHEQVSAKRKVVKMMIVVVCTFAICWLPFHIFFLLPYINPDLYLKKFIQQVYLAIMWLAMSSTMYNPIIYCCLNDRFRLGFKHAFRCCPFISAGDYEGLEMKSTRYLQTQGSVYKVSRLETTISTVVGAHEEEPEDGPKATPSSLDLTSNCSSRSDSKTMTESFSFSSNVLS

Substance-P receptor [3] = target: T2, Substance-P receptor; assay: Affinity for human Neurokinin 1 (NK1) receptor expressed in CHO cells at 1 uM; assay type: cell-based
[4] = target: T3, Substance-K receptor (Homo sapiens) (UniProt P21452); assay: Tested for binding affinity of compound against Neurokinin 2 (NK2) receptor at 1 uM
T3 sequence (whole entry): T1 sequence (P21452 whole entry)

Substance-K receptor [5] = target: T1, Substance-K receptor; assay: Tested for binding affinity of compound against Tachykinin receptor 2

Ki (Substance-K receptor [1]) [nM]	Ki (Substance-P receptor [2]) [nM]	Compound	other results
18	–	CO/N=C(\COCc1cc(OC)cc(OC)c1)C(CCN1CCC(O)(c2ccccc2)CC1)c1ccc(Cl)c(Cl)c1 (stereo unspecified)	–
25	168	CO/N=C(\COC(=O)c1cc(C(F)(F)F)cc(C(F)(F)F)c1)C(CCN1CCC(O)(c2ccccc2)CC1)c1ccc(Cl)c(Cl)c1 (stereo unspecified)	–
15	10	CO/N=C(\COCc1cc(Br)cc(Br)c1)C(CCN1CCC(O)(c2ccccc2)CC1)c1ccc(Cl)c(Cl)c1 (stereo unspecified)	–
136	–	CO/N=C(\COCc1ccccc1C)C(CCN1CCC(O)(c2ccccc2)CC1)c1ccc(Cl)c(Cl)c1 (stereo unspecified)	inhibition (Substance-P receptor [3]): 34%
3	–	CO/N=C(\CN(C)C(=O)c1cc(OC)c(OC)c(OC)c1)C(CCN1CCC(O)(c2ccccc2)CC1)c1ccc(Cl)c(Cl)c1 (stereo unspecified)	–
6	–	CO/N=C(\COCc1cc(Cl)cc(Cl)c1)C(CCN1CCC(O)(c2ccccc2)CC1)c1ccc(Cl)c(Cl)c1 (stereo unspecified)	–
4	–	CO/N=C(\CN(C)C(=O)c1ccccc1OC)C(CCN1CCC(O)(c2ccccc2)CC1)c1ccc(Cl)c(Cl)c1 (stereo unspecified)	–
1	2	CO/N=C(\CN(C)C(=O)c1cc(C)nc(N(C)C)c1)C(CCN1CCC(O)(c2ccccc2)CC1)c1ccc(Cl)c(Cl)c1 (stereo unspecified)	–
130	–	CO/N=C(\COCc1cc(C(C)(C)C)cc(C(C)(C)C)c1)C(CCN1CCC(O)(c2ccccc2)CC1)c1ccc(Cl)c(Cl)c1 (stereo unspecified)	inhibition (Substance-P receptor [3]): 19%
38	–	CO/N=C(\COCc1ccc(-c2ccccc2)cc1)C(CCN1CCC(O)(c2ccccc2)CC1)c1ccc(Cl)c(Cl)c1 (stereo unspecified)	inhibition (Substance-P receptor [3]): 2%
2	–	CO/N=C(\CNC(=O)c1cc(C(F)(F)F)cc(C(F)(F)F)c1)C(CCN1CCC(O)(c2ccccc2)CC1)c1ccc(Cl)c(Cl)c1 (stereo unspecified)	–
13	–	CO/N=C(\COCC1CCCCC1)C(CCN1CCC(O)(c2ccccc2)CC1)c1ccc(Cl)c(Cl)c1 (stereo unspecified)	inhibition (Substance-P receptor [3]): 21%
28	–	CO/N=C(\COCc1cc(OC)c(OC)c(OC)c1)C(CCN1CCC(O)(c2ccccc2)CC1)c1ccc(Cl)c(Cl)c1 (stereo unspecified)	–
8	–	CO/N=C(\COCc1cc(C)cc(C)c1)C(CCN1CCC(O)(c2ccccc2)CC1)c1ccc(Cl)c(Cl)c1 (stereo unspecified)	–
10	–	CO/N=C(\COCc1cc(F)cc(C(F)(F)F)c1)C(CCN1CCC(O)(c2ccccc2)CC1)c1ccc(Cl)c(Cl)c1 (stereo unspecified)	–
20	–	CO/N=C(\COC/C=C/c1cc(C(F)(F)F)cc(C(F)(F)F)c1)C(CCN1CCC(O)(c2ccccc2)CC1)c1ccc(Cl)c(Cl)c1 (stereo unspecified)	inhibition (Substance-P receptor [3]): 36%
130	50	CO/N=C(\CNCc1cc(C(F)(F)F)cc(C(F)(F)F)c1)C(CCN1CCC(O)(c2ccccc2)CC1)c1ccc(Cl)c(Cl)c1 (stereo unspecified)	–
7	–	CO/N=C(\CN(C)C(=O)c1ccc(N(C)C)c2ccccc12)C(CCN1CCC(O)(c2ccccc2)CC1)c1ccc(Cl)c(Cl)c1 (stereo unspecified)	–
20	–	CO/N=C(\COCc1ccc2ccc(C(F)(F)F)nc2c1)C(CCN1CCC(O)(c2ccccc2)CC1)c1ccc(Cl)c(Cl)c1 (stereo unspecified)	inhibition (Substance-P receptor [3]): 23%
118	39	CO/N=C(\COCCc1cc(C(F)(F)F)cc(C(F)(F)F)c1)C(CCN1CCC(O)(c2ccccc2)CC1)c1ccc(Cl)c(Cl)c1 (stereo unspecified)	–
–	81	CO/N=C(\COc1cc(C(F)(F)F)cc(C(F)(F)F)c1)C(CCN1CCC(O)(c2ccccc2)CC1)c1ccc(Cl)c(Cl)c1 (stereo unspecified)	inhibition [4]: 31%
22	42	CO/N=C(\CN(C)Cc1cc(C(F)(F)F)cc(C(F)(F)F)c1)C(CCN1CCC(O)(c2ccccc2)CC1)c1ccc(Cl)c(Cl)c1 (stereo unspecified)	–
4	2	CO/N=C(\CN(C)C(=O)c1cc(Cl)cc(Cl)c1)C(CCN1CCC(O)(c2ccccc2)CC1)c1ccc(Cl)c(Cl)c1 (stereo unspecified)	–
3	2	CO/N=C(\CN(C)C(=O)c1cc(C)nc(N2CCCC2)c1)C(CCN1CCC(O)(c2ccccc2)CC1)c1ccc(Cl)c(Cl)c1 (stereo unspecified)	–
42	–	CO/N=C(\COCc1cc(F)cc(F)c1)C(CCN1CCC(O)(c2ccccc2)CC1)c1ccc(Cl)c(Cl)c1 (stereo unspecified)	–
12	–	CO/N=C(\COCc1ccc2ccccc2c1)C(CCN1CCC(O)(c2ccccc2)CC1)c1ccc(Cl)c(Cl)c1 (stereo unspecified)	inhibition (Substance-P receptor [3]): 37%

Ki (Substance-K receptor [1]) [nM]	Ki (Substance-P receptor [2]) [nM]	Compound	other results
8	5	CO/N=C(\CN(C)C(=O)c1cc(OC)c(Br)c(OC)c1)C(CCN1CCC(O)(c2ccccc2)CC1)c1ccc(Cl)c(Cl)c1 (stereo unspecified)	–
7	–	CO/N=C(\COCC12CC3CC(CC(C3)C1)C2)C(CCN1CCC(O)(c2ccccc2)CC1)c1ccc(Cl)c(Cl)c1 (stereo unspecified)	inhibition (Substance-P receptor [3]): 0%
–	23	CO/N=C(\CCc1cc(C(F)(F)F)cc(C(F)(F)F)c1)C(CCN1CCC(O)(c2ccccc2)CC1)c1ccc(Cl)c(Cl)c1 (stereo unspecified)	inhibition [4]: 51%
21	–	CO/N=C(\COCc1ccc(F)c2ccccc12)C(CCN1CCC(O)(c2ccccc2)CC1)c1ccc(Cl)c(Cl)c1 (stereo unspecified)	–
6	–	CO/N=C(\CN(C)C(=O)c1cc(C)nc(C)c1)C(CCN1CCC(O)(c2ccccc2)CC1)c1ccc(Cl)c(Cl)c1 (stereo unspecified)	–
2	1	CO/N=C(\CN(C)C(=O)c1cc(C)cc(C)c1)C(CCN1CCC(O)(c2ccccc2)CC1)c1ccc(Cl)c(Cl)c1 (stereo unspecified)	–
157	75	CO/N=C(\C(C)OCc1cc(C(F)(F)F)cc(C(F)(F)F)c1)C(CCN1CCC(O)(c2ccccc2)CC1)c1ccc(Cl)c(Cl)c1 (stereo unspecified)	–
332	92	CO/N=C(\CCCc1cc(C(F)(F)F)cc(C(F)(F)F)c1)C(CCN1CCC(O)(c2ccccc2)CC1)c1ccc(Cl)c(Cl)c1 (stereo unspecified)	–
54	–	CO/N=C(\CNC(=O)c1ccccc1OC)C(CCN1CCC(O)(c2ccccc2)CC1)c1ccc(Cl)c(Cl)c1 (stereo unspecified)	–
4	7	CO/N=C(\CN(C)C(=O)c1cncc(Br)c1)C(CCN1CCC(O)(c2ccccc2)CC1)c1ccc(Cl)c(Cl)c1 (stereo unspecified)	–
4	–	CO/N=C(\COCc1ccc(C(C)(C)C)cc1)C(CCN1CCC(O)(c2ccccc2)CC1)c1ccc(Cl)c(Cl)c1 (stereo unspecified)	inhibition (Substance-P receptor [3]): 6%
2	–	CO/N=C(\CN(C)C(=O)c1ccc(C)s1)C(CCN1CCC(O)(c2ccccc2)CC1)c1ccc(Cl)c(Cl)c1 (stereo unspecified)	–
100	–	CO/N=C(\CO/C=C/c1cc(C(F)(F)F)cc(C(F)(F)F)c1)C(CCN1CCC(O)(c2ccccc2)CC1)c1ccc(Cl)c(Cl)c1 (stereo unspecified)	inhibition (Substance-P receptor [3]): 20%
167	6	CO/N=C(\C(=O)N(C)Cc1cc(C(F)(F)F)cc(C(F)(F)F)c1)C(CCN1CCC(O)(c2ccccc2)CC1)c1ccc(Cl)c(Cl)c1 (stereo unspecified)	–
6	2	CO/N=C(\CN(C)C(=O)c1cc(C)nc(-c2cccs2)c1)C(CCN1CCC(O)(c2ccccc2)CC1)c1ccc(Cl)c(Cl)c1 (stereo unspecified)	–
35	32	CO/N=C(\COC(=O)Nc1cc(C(F)(F)F)cc(C(F)(F)F)c1)C(CCN1CCC(O)(c2ccccc2)CC1)c1ccc(Cl)c(Cl)c1 (stereo unspecified)	–
286	435	CO/N=C(\CN(C)S(=O)(=O)c1cc(C(F)(F)F)cc(C(F)(F)F)c1)C(CCN1CCC(O)(c2ccccc2)CC1)c1ccc(Cl)c(Cl)c1 (stereo unspecified)	–
2	5	CO/N=C(\CN(C)C(=O)c1cc(OC)cc(OC)c1)C(CCN1CCC(O)(c2ccccc2)CC1)c1ccc(Cl)c(Cl)c1 (stereo unspecified)	–
9	–	CO/N=C(\COCc1ccc(C)cc1)C(CCN1CCC(O)(c2ccccc2)CC1)c1ccc(Cl)c(Cl)c1 (stereo unspecified)	inhibition (Substance-P receptor [3]): 48%
40	–	CO/N=C(\COCc1ccccc1)C(CCN1CCC(O)(c2ccccc2)CC1)c1ccc(Cl)c(Cl)c1 (stereo unspecified)	inhibition (Substance-P receptor [3]): 33%
8	5	CO/N=C(\CN(C)C(=O)Nc1cc(C(F)(F)F)cc(C(F)(F)F)c1)C(CCN1CCC(O)(c2ccccc2)CC1)c1ccc(Cl)c(Cl)c1 (stereo unspecified)	–
17	–	CO/N=C(\COCc1ccc2nonc2c1)C(CCN1CCC(O)(c2ccccc2)CC1)c1ccc(Cl)c(Cl)c1 (stereo unspecified)	inhibition (Substance-P receptor [3]): 29%
43	–	CO/N=C(\COCc1ccccn1)C(CCN1CCC(O)(c2ccccc2)CC1)c1ccc(Cl)c(Cl)c1 (stereo unspecified)	–
–	–	CO/N=C(/COCc1cc(C(F)(F)F)cc(C(F)(F)F)c1)C(CCN1CCC(O)(c2ccccc2)CC1)c1ccc(Cl)c(Cl)c1 (stereo unspecified)	Ki (Substance-K receptor [5]): 21 nM
21	–	CO/N=C(\COCc1ccc2sc(C)nc2c1)C(CCN1CCC(O)(c2ccccc2)CC1)c1ccc(Cl)c(Cl)c1 (stereo unspecified)	inhibition (Substance-P receptor [3]): 48%

Compound	Ki (Substance-K receptor [1]) [nM]	Ki (Substance-P receptor [2]) [nM]	other results
CO/N=C(\CN(C)C(=O)c1cc(C(F)(F)F)cc(C(F)(F)F)c1)C(CCN1CCC(O)(c2ccccc2)CC1)c1ccc(Cl)c(Cl)c1 (stereo unspecified)	9	4	–
CO/N=C(\COCc1noc(C(C)(C)C)n1)C(CCN1CCC(O)(c2ccccc2)CC1)c1ccc(Cl)c(Cl)c1 (stereo unspecified)	1	–	–
CO/N=C(\CN(C)C(=O)Oc1cc(C(F)(F)F)cc(C(F)(F)F)c1)C(CCN1CCC(O)(c2ccccc2)CC1)c1ccc(Cl)c(Cl)c1 (stereo unspecified)	11	6	–
